Laboratory results published in PubChem BioAssay (NCI).
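Cells were grown in 96-well plates and exposed to each compound for 48 hours at five concentrations; endpoints were interpolated linearly between bracketing concentrations, or set to the highest concentration if not reached. GI50 is the concentration that inhibits growth by half. TGI marks complete inhibition of growth.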

How the values were obtained:
Assay in all cases: NCI anticancer screen, dose series, 48 h; in the data active means GI50 below about 0.43 µM; inactive means the rest
[1] = system: 786-0 renal
[2] = system: A498 renal
[3] = system: A549 NSCLC
[4] = system: ACHN renal
[5] = system: BT-549 breast
[6] = system: CAKI-1 renal
[7] = system: CCRF-CEM leukemia
[8] = system: COLO 205 colon
[9] = system: DU-145 prostate
[10] = system: EKVX NSCLC
[11] = system: HCC-2998 colon
[12] = system: HCT-116 colon
[13] = system: HCT-15 colon
[14] = system: HL-60(TB) leukemia
[15] = system: HOP-62 NSCLC
[16] = system: HOP-92 NSCLC
[17] = system: HS 578T breast
[18] = system: HT29 colon
[19] = system: IGROV1 ovarian
[20] = system: K-562 leukemia
[21] = system: KM12 colon
[22] = system: LOX IMVI melanoma
[23] = system: M14 melanoma
[24] = system: MALME-3M melanoma
[25] = system: MCF7 breast
[26] = system: MDA-MB-231 breast
[27] = system: MDA-MB-435
[28] = system: MOLT-4 leukemia
[29] = system: NCI-H226 lung
[30] = system: NCI-H23 lung
[31] = system: NCI-H460 lung
[32] = system: NCI-H522 lung
[33] = system: NCI/ADR-RES ovarian
[34] = system: OVCAR-3 ovarian
[35] = system: OVCAR-4 ovarian
[36] = system: OVCAR-5 ovarian
[37] = system: OVCAR-8 ovarian
[38] = system: PC-3 prostate
[39] = system: RPMI-8226 leukemia
[40] = system: RXF 393 renal
[41] = system: SF-268 CNS
[42] = system: SF-295 CNS
[43] = system: SF-539 CNS
[44] = system: SK-MEL-2 melanoma
[45] = system: SK-MEL-28 melanoma
[46] = system: SK-MEL-5 melanoma
[47] = system: SK-OV-3 ovarian
[48] = system: SN12C renal
[49] = system: SNB-19 CNS
[50] = system: SNB-75 CNS
[51] = system: SR leukemia
[52] = system: SW-620 colon
[53] = system: T-47D breast
[54] = system: TK-10 renal
[55] = system: U251 CNS
[56] = system: UACC-257 melanoma
[57] = system: UACC-62 melanoma
[58] = system: UO-31 renal

Cn1cc(-c2csc(-c3c[nH]c4ccccc34)n2)c2cccnc21
6.09 µM: TGI [42]
4.82 µM: TGI [50]
9.05 µM: TGI [43]
> 44.1 µM: TGI [58]
18.1 µM: TGI [54]
> 27.5 µM: TGI [53]
> 66 µM: TGI [29]
> 91.9 µM: TGI [37]
> 75.1 µM: TGI [49]
86.2 µM: TGI [26]
46.6 µM: TGI [2]
34.4 µM: TGI [9]
> 66.7 µM: TGI [38]
1.72 µM: TGI [18]
2.01 µM: TGI [32]
active: GI50 [6] 0.291 µM | GI50 [12] 0.363 µM | GI50 [14] 0.343 µM | GI50 [18] 0.324 µM | GI50 [19] 0.308 µM | GI50 [20] 0.232 µM | GI50 [21] 0.413 µM | GI50 [23] 0.356 µM | GI50 [24] 0.215 µM | GI50 [27] 0.0804 µM | GI50 [31] 0.37 µM | GI50 [32] 0.211 µM | GI50 [33] 0.28 µM | GI50 [34] 0.297 µM | GI50 [42] 0.305 µM | GI50 [46] 0.391 µM | GI50 [52] 0.367 µM | GI50 [55] 0.415 µM
11.7 µM: TGI [46]
9.84 µM: TGI [40]
> 72.5 µM: TGI [52]
6.98 µM: TGI [8]
22.9 µM: TGI [19]
12.4 µM: TGI [33]
14.1 µM: TGI [16]
> 90.3 µM: TGI [56]
23 µM: TGI [47]
> 37.9 µM: TGI [6]
inactive: GI50 [1] 2.66 µM | GI50 [2] 0.688 µM | GI50 [3] 0.656 µM | GI50 [4] 0.97 µM | GI50 [5] 1.16 µM | GI50 [7] 0.534 µM | GI50 [8] 0.431 µM | GI50 [9] 1.05 µM | GI50 [10] 0.636 µM | GI50 [11] 1.27 µM | GI50 [13] 0.503 µM | GI50 [15] 0.718 µM | GI50 [16] 0.915 µM | GI50 [17] 5.9 µM | GI50 [22] 0.537 µM | GI50 [25] 1.07 µM | GI50 [26] 1.33 µM | GI50 [28] 0.798 µM | GI50 [29] 2.55 µM | GI50 [30] 1.16 µM | GI50 [35] 2.89 µM | GI50 [36] 8.88 µM | GI50 [37] 0.776 µM | GI50 [38] 0.988 µM | GI50 [39] 1.84 µM | GI50 [40] 1.1 µM | GI50 [41] 0.813 µM | GI50 [43] 0.655 µM | GI50 [44] 0.498 µM | GI50 [45] 3.12 µM | GI50 [47] 0.966 µM | GI50 [48] 1.47 µM | GI50 [49] 0.825 µM | GI50 [50] 0.542 µM | GI50 [51] 0.437 µM | GI50 [53] 0.783 µM | GI50 [54] 1.56 µM | GI50 [56] 1.65 µM | GI50 [57] 0.448 µM | GI50 [58] 0.523 µM
38.7 µM: TGI [5]
> 91.1 µM: TGI [1]
> 42.2 µM: TGI [31]
0.323 µM: TGI [27]
> 100 µM: TGI [4] | TGI [7] | TGI [11] | TGI [12] | TGI [13] | TGI [14] | TGI [17] | TGI [20] | TGI [22] | TGI [23] | TGI [25] | TGI [28] | TGI [30] | TGI [35] | TGI [36] | TGI [39] | TGI [41] | TGI [45] | TGI [48] | TGI [51] | TGI [57]
27 µM: TGI [15]
77.2 µM: TGI [21]
3 µM: TGI [34]
> 40.5 µM: TGI [10]
> 64.4 µM: TGI [3]
16.2 µM: TGI [24] | TGI [55]
